# Columns and labels:
# [1] = target: T1, E. coli SC (^EcSC, beta ring, DnaN) (Escherichia coli, UniProt P0A988); test: ITC, peptide interaction with E. coli sliding clamp; format: binding; conditions: for ΔH (kcal/mole): ITC 30° C. (303.15 K); for ΔH (kcal/mole) / Kd (nM) / ΔG (kcal/mole) / −TΔS (kcal/mole): Table 2A, ^EcSC, Ni = no specific interaction
# T1 construct: inferred from the pET15b vector and the Ni-NTA/imidazole purification; made in house; host or cells: E. coli BL21 (DE3) pLys
# Protocol: The DnaN protein was expressed from plasmids pET15b, containing the dnaN gene from E. coli, transfected in BL21 (DE3) pLys E. coli strain. Cells were grown in LB at 37° C. to OD 0.5, then induced by IPTG (0.1 mM) at 28° C. overnight. DnaN protein was first enriched on a Ni-NTA column, eluted with an imidazole step (300 mM) and further purified on a Source Q column in buffer containing 20 mM Tris HCl pH 7.5, 0.5 mM EDTA and 10% glycerol, using a gradient from 0 to 0.5 M NaCl. After a final ultracentrifugation (45K, 1 h, 20° C.), soluble proteins were concentrated on a Centricon 30K (Millipore) in the same buffer and stored at 4° C. in 2 M ammonium sulfate.
# ITC experiments were performed on a iTC200 (Microcal Malvern Panalytical) or PEAQ-ITC instrument (Microcal Malvern Panalytical). The E. coli SC were washed extensively with ITC buffer (R1 buffer: 10 mM Hepes pH 7.4, 0.15 M NaCl, 3 mM EDTA) on Centrikon 10K at 4° C. before ITC experiments. […] Similarly, E. coli 70S ribosome particles were also washed extensively with ITC 70S buffer (50 mM Tris HCl pH7.5, 30 mM KCl, 70 mM NH4Cl, 7 mM MgCl2, 1 mM DTT, 5% glycerol) on Centrikon 100K at 4° C. before ITC experiments. […] […] Data were corrected from control experiments in which peptides were injected in ITC buffer solution. Each titration was performed at least twice. Analyses of experimental data were performed with AFFINImeter software (https://www.affinimeter.com; S4S, Santiago de Compostela, Spain).
# [2] = test system: E. coli 70S ribosome (^Ec70S); test: ITC, peptide interaction with E. coli 70S ribosome; format: binding; conditions: ITC 30° C., Table 2B, ^Ec70S; for Kd: FITC peptides (*), values not well defined, weak interaction; for ΔG / ΔH / −TΔS: Ni = no specific interaction, FITC peptides (*) values not well defined
# Protocol: E. coli MRE600 cells were grown at 37° C. in LB medium until OD^600=1. Cells were centrifuged at 4° C., and pellets were resuspended in buffer A (20 mM Tris HCl pH 7.5; 200 mM NH4Cl; 20 mM MgCl2; 0.1 mM EDTA; 6 mM β-mercaptoethanol) and lysed using a French press at 1.6 kbar. The crude lysate was centrifuged (18 200 rpm) for 30 mn at 4° C. The supernatant was further centrifuged (47000 rpm) at 4° C. for 4 hours and the pellet resuspended in 12.5 ml of buffer A. This solution was laid on a 30% sucrose cushion and centrifuged (34 000 rpm) for 19 hours at 4° C. The ribosome pellet was resuspended in 12.5 ml buffer B (20 mM Tris HCl pH 7.5; 50 mM NH4Cl; 10 mM MgCl2; 0.1 mM EDTA; 6 mM β-mercaptoethanol) and centrifuged again (18 200 rpm) for 1 hour at 4° C. The supernatant was concentrated on Centrikon 100K (Millipore) and washed extensively with ITC 70S buffer. Ribosome concentration was determined by UV absorption at 260 nm. Samples were snap frozen in liquid nitrogen and kept at −80° C.
# ITC experiments were performed on a iTC200 (Microcal Malvern Panalytical) or PEAQ-ITC instrument (Microcal Malvern Panalytical). The E. coli SC were washed extensively with ITC buffer (R1 buffer: 10 mM Hepes pH 7.4, 0.15 M NaCl, 3 mM EDTA) on Centrikon 10K at 4° C. before ITC experiments. […] Similarly, E. coli 70S ribosome particles were also washed extensively with ITC 70S buffer (50 mM Tris HCl pH7.5, 30 mM KCl, 70 mM NH4Cl, 7 mM MgCl2, 1 mM DTT, 5% glycerol) on Centrikon 100K at 4° C. before ITC experiments. Peptides (100 to 400 μM) were titrated at 30° C. (303.15 K) in sequential injections (usually 2 μl each) into a SC (20 or 30 μM) or 70S (10 to 15 μM) solution. Data were corrected from control experiments in which peptides were injected in ITC buffer solution. Each titration was performed at least twice. Analyses of experimental data were performed with AFFINImeter software (https://www.affinimeter.com; S4S, Santiago de Compostela, Spain).
# The lack of interaction with the ribosome of E. coli has been measured by ITC at 30° C.:
# The interactions of these peptides with the E. coli SC (beta ring) and the ribosome were measured by ITC at […]: […]
# E. coli D22 strain = test: microbe, parasite or virus in culture; format: cell-based
# From the text: E. coli strain D22 (F-, IpxC101, proA23, lac-28, tsx-81, trp-30, his-51, tufA1, rpsL173(strR), ampCp-1 was purchased at E. coli Genetic Stock Center (Yale University) and used in the determination of MIC and in the peptide penetration assays. E. coli ATCC23724 cells were used to infect D. melanogaster flies. 70S ribosomes were purified from the E. coli MRE600 strain (Accession AY140951) and BL21 (DE3) pLys strain was used for production of the DnaN protein.
# E. coli strains were cultivated on either agar or liquid 1× Mueller Hinton broth unless specified. MIC assays were performed in duplicate in 96-well microtiter plates on the basis of the protocol recommended by the Clinical and Laboratory Standards Institute. Briefly, a mix of 5-6 fresh (less than 36 hours) colonies grown on MH agar plates were inoculated in 3 ml of MH broth and incubated for about 16 h at 37° C. under agitation. 30 μl of this saturated culture were inoculated in 3 ml of fresh medium and allowed to grow until OD600 nm of about 0.6-0.8. Dilution to an OD600 nm of 0.002 was made in MH broth. Within a time laps not exceeding 30 min, 50 μl of this cell suspension was added to 50 μl of MH broth (containing or not the peptide/antibiotic diluted in MH broth) in wells of a 96-well round bottom microwell plate (Greiner; final cell density about 2 to 5×10^5 cfu/ml). Plates were incubated at 37° C. for 18-24 h and final turbidity of each well was measured at 620 nm using a Multiskan FC microplate reader (Thermo Scientific). MIC was defined as the minimal antibiotic concentration that result in no increase of turbidity at that time. Each MIC determination was performed in duplicate and at least in two independent experiments. Plating of 75 μl of the content of the wells of interest on LB Agar plates was used to determine the MBC that is defined by a decrease of at least 99.9% of cell viability as compared to the number of viable cells in the inoculum (about 2 to 5×10^4 cfu).
# E. coli D22 cells = conditions: FIG. 1
# Protocol: FIG. 1 concerns the analysis of peptide penetration into E. coli cells. (a) Fluorescence microscopy of E. coli cells exposed to the three different FITC labeled peptides.
# In order to analyse the penetration capacity of the peptides in E. coli D22 cells, FITC-labeled peptides were added to 1 ml of bacterial cultures (OD600=0.8) at a final concentration of 8 μg/ml. The cells were allowed to acquire the peptides for 1 h at 37° C., washed 3 times with 0.5 ml PBS, fixed with 1% formaldehyde solution in PBS for 45 min at room temperature, washed 3 times with 0.5 ml PBS and finally resuspended in 50 μl PBS. Cells were visualized using a Leica DM5500 microscope equipped with a 100× objective and images were processed using Fiji software. One-way ANOVA statistical analysis was performed with the R package.
# Human PCNA = Human PCNA (Homo sapiens, UniProt P12004); test: ITC, peptide interaction with human PCNA; format: binding; conditions: ITC 30° C., Human PCNA
# Sequence of Human PCNA (P12004 whole entry): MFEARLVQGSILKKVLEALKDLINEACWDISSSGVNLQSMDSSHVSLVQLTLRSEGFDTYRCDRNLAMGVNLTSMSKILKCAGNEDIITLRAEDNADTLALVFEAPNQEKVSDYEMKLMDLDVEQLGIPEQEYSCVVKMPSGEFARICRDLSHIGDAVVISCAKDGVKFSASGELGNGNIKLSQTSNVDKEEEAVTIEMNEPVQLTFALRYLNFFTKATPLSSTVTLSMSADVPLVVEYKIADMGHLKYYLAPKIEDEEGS
# Protocol: The inventors have compared the affinities of the prototypical P7 SC-binding peptide for the bacterial SC and for the eukaryotic functional homolog “Proliferating Cell Nuclear Antigen” PCNA. The same analysis was performed with the DPD1 peptide that contains a well-described specific PCNA Interacting Peptide (PIP) sequence ([…]).
# T1 sequence (P0A988 whole entry): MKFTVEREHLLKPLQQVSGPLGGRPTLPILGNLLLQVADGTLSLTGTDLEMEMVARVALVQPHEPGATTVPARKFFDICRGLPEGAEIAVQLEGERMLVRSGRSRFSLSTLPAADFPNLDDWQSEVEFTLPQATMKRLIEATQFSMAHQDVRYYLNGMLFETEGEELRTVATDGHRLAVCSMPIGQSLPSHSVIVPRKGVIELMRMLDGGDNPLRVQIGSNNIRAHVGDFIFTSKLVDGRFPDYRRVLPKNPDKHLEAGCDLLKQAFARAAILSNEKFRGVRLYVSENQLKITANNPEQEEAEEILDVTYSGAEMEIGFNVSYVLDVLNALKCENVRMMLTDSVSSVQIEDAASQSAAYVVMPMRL
Molecule,"interaction with ^EcSC, in words ([1]; ITC 30° C.)",ΔH (kcal/mole) [1],Kd (nM) ([1]; ITC 30° C.),ΔG (kcal/mole) ([1]; ITC 30° C.),−TΔS (kcal/mole) ([1]; ITC 30° C.),Kd [2] [µM],ΔG [2] [kcal/mol],ΔH [2] [kcal/mol],−TΔS [2] [kcal/mol],MIC (μM) (E. coli D22 strain; D22 strain) [µM],"entry into E. coli cells, times less efficiently than P122 (E. coli D22 cells; FITC staining after exposure to equal amounts)",MIC (μg/ml) (E. coli D22 strain; D22 strain) [µg/mL],fold increase in MIC as compared to Py (E. coli D22 strain; E. coli D22) [fold],"penetration into E. coli cells, times more efficiently than P72 or P150 (E. coli D22 cells; average FITC signal of more than 100 bacteria)","interaction with E.coli SC, in words ([1]; ITC 30° C., specificity comparison with PCNA)",Kd (Human PCNA) [µM],ΔH (Human PCNA) [kcal/mol]
CC[C@H](C)[C@H](NC(=O)[C@@H]1CCCN1C(=O)[C@H](CCCNC(=N)N)NC(=O)[C@@H]1CCCN1C(=O)[C@@H]1CCCN1C(=O)[C@@H](NC(=O)[C@@H]1CCCN1C(=O)[C@H](CCCNC(=N)N)NC(=O)[C@@H]1CCCN1C(=O)[C@H](CC(C)C)NC(=O)[C@H](Cc1ccc(O)cc1)NC(=O)[C@H](CO)NC(=O)CNC(=O)[C@H](CCCCN)NC(=O)[C@H](CC(=O)O)NC(=O)[C@@H](NC(=O)[C@H](CCCCN)NC(=O)c1ccc2c(c1)C(=O)OC21c2ccc(O)cc2Oc2cc(O)ccc21)C(C)C)[C@@H](C)O)C(=O)N[C@@H](Cc1ccc(O)cc1)C(=O)N[C@@H](CC(N)=O)C(=O)N[C@@H](CCCNC(=N)N)C(=O)N[C@@H](CC(N)=O)C(=O)NCC(=O)N1CCC[C@H]1C(=O)N[C@@H](CCCNC(=N)N)C(=O)N[C@@H](CC1CCCCC1)C(=O)N[C@@H](Cc1ccccc1)C(=O)N[C@@H](CCC(N)=O)C(=O)N[C@@H](CC(C)C)C(=O)N[C@@H](CC(=O)O)C(=O)O [Peptide P72],do not interact,Ni,Ni,Ni,Ni,> 10,-5.98,-8.92,2.94,>269.9,about 3 times,–,–,–,–,–,–
CC[C@H](C)[C@H](NC(=O)[C@@H]1CCCN1C(=O)[C@H](CCCNC(=N)N)NC(=O)[C@@H]1CCCN1C(=O)[C@@H]1CCCN1C(=O)[C@@H](NC(=O)[C@@H]1CCCN1C(=O)[C@H](CCCNC(=N)N)NC(=O)[C@@H]1CCCN1C(=O)[C@H](CC(C)C)NC(=O)[C@H](Cc1ccc(O)cc1)NC(=O)[C@H](CO)NC(=O)CNC(=O)[C@H](CCCCN)NC(=O)[C@H](CC(=O)O)NC(=O)[C@@H](NC(=O)[C@H](CCCCN)NC(=O)c1ccc2c(c1)C(=O)OC21c2ccc(O)cc2Oc2cc(O)ccc21)C(C)C)[C@@H](C)O)C(=O)N[C@@H](Cc1ccc(O)cc1)C(=O)N[C@@H](CC(N)=O)C(=O)N[C@@H](CCCNC(=N)N)C(=O)N[C@@H](CC(N)=O)C(N)=O [Peptide P122],do not interact,Ni,Ni,Ni,Ni,> 10,-6.91,-20.1,13.3,181 to 362,–,512 to 1024,64 to 512,about 3 times,–,–,–
peptide that contains a well-described specific PCNA Interacting Peptide (PIP) sequence (QKKITDYF) [DPD1],–,–,–,–,–,–,–,–,–,–,–,–,–,–,no interaction,0.158,-9.94

# Reference: patent US12098217B2, “Fusion peptides as antimicrobial agents” (CENTRE NATIONAL DE LA RECHERCHE SCIENTIFIQUE, priority 2019, dated 2024)
